target: T1, Kv7.2/7.3 channels (Homo sapiens, UniProt O43525+O43526); test: Kv7.2/3 channel opening activity, IonWorks planar patch-clamp of K-current at 0 mV; assay type: cell-based; details: CHO-K1 cells expressing human Kv7.2/7.3; IonWorks Quattro, step from -80 mV to 0 mV, 7-point concentration curves
T1 construct: The entire construct for Kv7.2 and Kv7.3 was subcloned into the pIRESneo3 and pIREShygro3 expression vectors; expressed in transfected cells
Source text: Biological Assay for Kv7.2/3 Channel Opening Activity
Human Kv7.2 and Kv7.3 clones were obtained from GeneDynamics (Eugene, Oreg.). Both human Kv7.2/pIRESneo3 and human Kv7.3/pIREShygro3 expression vectors were constructed using a combination of fragments amplified from a human hippocampus library (extending from a NheI site near the 5′ end through the stop codon) and synthetic oligonucleotides (extending from the start codon to the BamHI site). The entire construct for Kv7.2 and Kv7.3 was subcloned into the pIRESneo3 and pIREShygro3 expression vectors (Clonetech, Mountain View, Calif.), respectively, using NheI/BamHI sites introduced on either side of the start and stop codons. The construct was sequenced in its entirety to make sure that no mutations were introduced during the amplification and cloning process. Adapted from Wickendon, A D et al., Mol Pharmacol 58(3):591-600, 2000.
Chinese hamster ovary (CHO-K1) cells were transfected with human-Kv7.2 in a pIRESneo3 plasmid DNA vector (Clonetech, Mountain View, Calif.) and the h-Kv7.3 subunit in pIREShygro3 plasmid DNA vector using Lipofectamine-2000™ reagent (InVitrogen, San Diego, Calif.), according to the manufacturers instructions. Cells stably expressing the human Kv7.2 and Kv7.3 constructs were identified by their resistance to 400 ug/ml, geneticin (Gibco #10131-027) and 400 ug/ml, hygromycin-B (Invitrogen #10687-010). Clones were screened for functional expression using the whole-cell, voltage-clamp technique.
To determine if compounds can enhance voltage-dependent K-current in Kv7.2/7.3 channel containing CHO-K1 cells. Planar patch-clamp is used on IonWorks to functionally determine percent enhancement of Kv7.2/7.3-current at 0 mV (compared to retigabine) and potency (EC50) of compounds. Intrinsic activity and/or potency may be important in determining in vivo pharmacological efficacy of the compounds.
Serial dilutions were made in DMSO on an Apricot Personal Pipettor. Compounds were then diluted in external buffer on a 384 well assay plate (final DMSO concentration=0.3%).
Cells used in this assay were CHO-K1 expressing Kv7.2/7.3 channels. Cells were maintained in growth media containing: F-12 (Gibco #11765-054), 10% FBS (Invitrogen 16140-071), 1:100 Glutamax (Gibco #35050-061), 1:100 Penicillin/streptomycin (Gibco #15140-122), 400 ug/ml Geneticin (Gibco #10131-027), 400 ug/ml Hygromycin-B (Invitrogen #10687-010). Cells were grown in T-150 flasks to a confluence of approx. 80%. External recording buffer contained (in mM): NaCl (137), KCl (4), MgCl2 (1), CaCl2 (1.8), HEPES (10), and glucose (10), pH was adjusted to 7.3 with NaOH and osmolarity was adjusted to 300-305 mOsM with sucrose, if necessary. Internal buffer contained (in mM): Kgluconate (120), KCl (20), NaCl (5), MgCl2 (1), CaCl2 (2), HEPES (10), KF (2), and Na2ATP (2). Na2ATP was added to internal buffer right before use and pH was adjusted to 7.2 with KOH. Osmolarity of internal buffer was adjusted to 290-295 mOsM.
Cells were washed 1× with Ca/Mg free PBS and then removed from the plates with a 50:50 mixture of versene (Gibco 15040): 0.25% trypsin-EDTA (Gibco 25200) (4 min), triturated, centrifuged at ˜1000 rpm for 5 min, and resuspended at ˜2.5 million cells/ml in external buffer for recording on IonWorks. Potassium current measurements were made using an IonWorks Quattro instrument (MDS Corp.) using PatchPlate PPC substrates with 64 apertures per well. IonWorks calculated leak current was digitally subtracted from the total current acquired. Potassium current was elicited by stepping from −80 mV to 0 mV (2 sec) was measured in the absence and presence of increasing concentrations (½ log) of unknown compound (7-point concentration curves). Retigabine was run as a positive control and comparator on each PatchPlate PPC. Maximum increase in K current was determined by subtracting the current elicited in external buffer alone wells from the current elicited in wells with compound treatment (both at 0 mV). […]

Compared with Cc1cccn2c(=O)c(NC(=O)CC(C)(C)C)c(NC(C)C3CC3)nc12 (single isomer, unassigned) [Example 2a, N-{2-[(1-Cyclopropylethyl)amino]-9-methyl-4-oxo-4H-pyrido[1,2-a]pyrimidin-3-yl}-3,3-dimethylbutanamide, (+)-enantiomer], Cc1cccn2c(=O)c(NC(=O)CC(C)(C)C)c(NC(C)C)nc12 [Example 3, 3,3-Dimethyl-N-[9-methyl-4-oxo-2-(propan-2-ylamino)-4H-pyrido[1,2-a]pyrimidin-3-yl]butanamide] is 2-fold higher in EC50: 227 nM for the first, 450 nM for the second. The first is the more potent here.

Cc1cccn2c(=O)c(NC(=O)CC(C)(C)C)c(NC(C)C3CC3)nc12 (single isomer, unassigned) [Example 2b, N-{2-[(1-Cyclopropylethyl)amino]-9-methyl-4-oxo-4H-pyrido[1,2-a]pyrimidin-3-yl}-3,3-dimethylbutanamide, (−)-enantiomer] and CC[C@@H](C)Nc1nc2c(C)cccn2c(=O)c1NC(=O)CC(C)(C)C [Example 1, N-{2-[(2R)-Butan-2-ylamino]-9-methyl-4-oxo-4H-pyrido[1,2-a]pyrimidin-3-yl}-3,3-dimethylbutanamide] are within 1.5-fold of each other in EC50: 128 nM for the first, 168 nM for the second.

Going from CC(C)(C)CC(=O)Nc1c(C2CC2)nc2n(c1=O)CCCC2C(F)(F)F (single isomer, unassigned) [Example 5a, N-[2-Cyclopropyl-4-oxo-9-(trifluoromethyl)-6,7,8,9-tetrahydro-4H-pyrido[1,2-a]pyrimidin-3-yl]-3,3-dimethylbutanamide, (−)-enantiomer] to CC(C)Nc1nc2n(c(=O)c1NC(=O)CC(C)(C)C)CCCC2C(F)(F)F (single isomer, unassigned) [Example 8a, 3,3-Dimethyl-N-[4-oxo-2-(propan-2-ylamino)-9-(trifluoromethyl)-6,7,8,9-tetrahydro-4H-pyrido[1,2-a]pyrimidin-3-yl]butanamide, (−) enantiomer], the EC50 falls from 1240 nM to 382 nM (3.2-fold).

CC(C)(C)CC(=O)Nc1c(C2CC2)nc2n(c1=O)CCCC2C(F)(F)F (single isomer, unassigned) [Example 5b, N-[2-Cyclopropyl-4-oxo-9-(trifluoromethyl)-6,7,8,9-tetrahydro-4H-pyrido[1,2-a]pyrimidin-3-yl]-3,3-dimethylbutanamide, (+)-enantiomer] and CC(C)Nc1nc2n(c(=O)c1NC(=O)CC(C)(C)C)CCCC2C(F)(F)F (single isomer, unassigned) [Example 8b, 3,3-Dimethyl-N-[4-oxo-2-(propan-2-ylamino)-9-(trifluoromethyl)-6,7,8,9-tetrahydro-4H-pyrido[1,2-a]pyrimidin-3-yl]butanamide, (+) enantiomer] are within 1.5-fold of each other in EC50: 298 nM for the first, 412 nM for the second.

CC[C@@H](C)Nc1nc2n(c(=O)c1NC(=O)CC(C)(C)C)CCCC2C (single isomer, unassigned; diastereomer 1) [Example 11a] and CC(C)Nc1nc2c(OC(C)(F)F)cccn2c(=O)c1NC(=O)CC(C)(C)C [Example 9, N-[9-(1,1-Difluoroethoxy)-4-oxo-2-(propan-2-ylamino)-4H-pyrido[1,2-a]pyrimidin-3-yl]-3,3-dimethylbutanamide] are within 1.5-fold of each other in EC50: 307 nM for the first, 369 nM for the second.

Compared with CC[C@@H](C)Nc1nc2n(c(=O)c1NC(=O)CC(C)(C)C)CCCC2C (single isomer, unassigned; diastereomer 2) [Example 11b], CC(C)Nc1nc2c(C(F)(F)F)cccn2c(=O)c1NC(=O)CC(C)(C)C [Example 7, 3,3-Dimethyl-N-[4-oxo-2-(propan-2-ylamino)-9-(trifluoromethyl)-4H-pyrido[1,2-a]pyrimidin-3-yl]butanamide] is 7.9-fold lower in EC50: 942 nM for the first, 119 nM for the second.

Going from CC(C)(C)CC(=O)Nc1c(C2CC2)nc2c(C(F)(F)F)cccn2c1=O [Example 4, N-[2-Cyclopropyl-4-oxo-9-(trifluoromethyl)-4H-pyrido[1,2-a]pyrimidin-3-yl]-3,3-dimethylbutanamide] to CC(C)(C)CC(=O)Nc1c(C2CC2)nc2c(OC(C)(F)F)cccn2c1=O [Example 10, N-[2-Cyclopropyl-9-(1,1-difluoroethoxy)-4-oxo-4H-pyrido[1,2-a]pyrimidin-3-yl]-3,3-dimethylbutanamide], the EC50 rises from 137 nM to 306 nM (2.2-fold). The first is the more potent here.

CC(C)(C)CC(=O)Nc1c(NC2CCC2)nc2c(C(F)(F)F)cccn2c1=O [Example 6, N-[2-(Cyclobutylamino)-4-oxo-9-(trifluoromethyl)-4H-pyrido[1,2-a]pyrimidin-3-yl]-3,3-dimethylbutanamide] showed an EC50 of 91.5 nM.

Source: patent publication US20130184294A1, “Pyrimidones for Treatment of Potassium Channel Related Diseases” (Pfizer Inc., priority 2010, published 2013)
